Measured values taken from patent US6855329B1, “Surface coating spatially controlled patterns” (Massachusetts Institute of Technology, priority 1998, dated 2005).

How the values were obtained:
[1] = cited from earlier work
[2] = test system: smooth muscle cells, fibroblasts or platelets; conditions: binds to the integrin on human endothelial cells; cited from earlier work
[3] = test system: Bovine aortic endothelial cells (BAECs); conditions: 48hr
Description: (§1) A patterned polymer surface is prepared as described in Example 1;
(§2) Bovine aortic endothelial cells (BAECs) were maintained in low glucose Dulbecco's modifed Eagle's medium (DMEM) supplemented with 10% fetal bovine serum, 0.5% penicillin, 0.5% streptomycin and 1% L-glutamine in a humidified incubator at 37° C. and 5% CO2. Cells were passaged by trypsinisation before reaching confluence, usually every fifth day. Fresh media were added every other day. PC12 cells (ATCC CRL 1721) were grown in suspension culture in F-12K media supplemented with 15% horse serum, 2.5% fetal bovein serum, 0.5% penicillin, 0.5% streptomycin and 1% L-glutamine in a humidified incubator at 37° C. and 5% CO2. Cells were passaged 1:5 every third day. All cell culture reagents were obtained from Sigma unless otherwise stated.
(§3) BAECs between passages 7 and 9 were removed from tissue culture flasks by trypsinisation, pelleted by centrifugation, resuspended, washed three times and diluted to the appropriate concentration in serum-free MDEM. PC12 cells were primed with culture medium containing 50 ng/ml 7S nerve growth factor (NGF) 48 h prior to the experiment. The cells were pelleted by centrifugation, washed three times with serum-free F-12K medium, passed through a 22-guage needle to obtain a single cell suspension, and diluted to the appropriate concentration with serum-free. F-12K medium supplemented with 50ng/ml 7S NGF. For both cell types, approximately 10,000 cells/cm^2 were added to each sample and the plates returned to the incubator for the duration of the experiment (48hr). At the end point of the experiment, the samples were washed gently with PBS to remove unattached cells and visualised with a Nikon Diaphot TMD inverted microscope equipped with a Hitachi HV-C20 high resolution CCD video camera using phase contrast objectives. Images were digitised using NIH Image (v1.61) image analysis software. In addition, some BAEC samples were fixed in 10% neutral buffered formalin for 10 min, washed with water, and stained with hematoxylin for visualisation.

PC12 cells = conditions: NGF-primed cells, 48hr
Description: as §1, §2, §3

IKVAV (SEQ ID NO:2)
water solubility [1]: not significantly water soluble

REDV (SEQ ID NO:4)
adhesion or spreading of smooth muscle cells, fibroblasts or platelets [2]: does not support adhesion or spreading

biotin-G11 GRGDS (SEQ ID NO:18)
cell adhesion to the 30 or 12 μm-wide lines ([3]; 30 or 12 μm-wide lines): little cell adhesion | cell coverage of the 70 and 50 μm width lines ([3]; 70 and 50 μm width lines): Complete cell coverage | adhesion and spreading of BAECs on functionalised lines ([3]; serum-free medium, approximately 10,000 cells/cm^2, no adhesion to unfunctionalised areas between the lines): adhered and spread

biotin-G5CSRARKQAASIKVAVSADR (SEQ ID NO:19)
neurite outgrowth of PC12 cells on the micropattern (PC12 cells; neurites restricted from crossing the line boundary): Directionally controlled neurite outgrowth was stimulated | adherence of PC12 cells to functionalised lines (PC12 cells; serum-free F-12K with 50ng/ml 7S NGF, only a small degree of cell adhesion between the lines): selective adherence

CSRARKQAASIKVAVSADR
water solubility [1]: water soluble
